Assays:
[1] = food intakes of mice during the experiment; format: in vivo, C57BL/6 mice; conditions: for food intakes of mice: LU, lutein 6.15 mg/kg bw oral daily, blue light, Mean±S.E.M., n=6
Experimental: In the present invention, six-week-old male C57BL/6 mice were placed in a breeding cage in which the following feeding conditions were kept: temperature, 22±2° C., humidity, 55±5%, and the light-dark cycle of 12-hour light and 12-hour dark. The mice were fed with fodders at the adaptive phase for one week; general solid fodders for test animals were administered to mice of the control group and mice during the adaptive phase. The initial day was defined as Day 0 when the adaptive phase for the mice was over. From the next week, the mice were interfered with samples under test and exposed to blue light. During the experiments, the mice were monitored for weights as well as water intakes and checked for any physiological change. The data for experiments through electroretinography (ERG), fndus photography (FP), fundus fluorescein angiograph (FFA), spectral-domain optical coherence tomography (SD-OCT) and intraocular pressure (IOP) were collected at Day 0, Day 21 and Day 35, as shown in FIG. 1 for the experimental process. The C57BL/6 mice, which weighed between 23 and 25 g, were divided into seven groups randomly. In each group, the six mice induced by blue light successfully were incorporated in experiments. The samples dissolved in deuterium-depleted water (DDW) were fed to mice through oral tubes once a day. The groups were named and introduced as follows: • (1) Solvent not classified group (NC): The mice were fed with 0.2 ml deuterium-depleted water (DDW) through tubes; • (2) Negative control group (Blue light (BL)): The mice were fed with 0.2 ml deuterium-depleted water (DDW) through tubes and exposed to blue light; • (3) Low-dosage Y7 probiotics group […]): The mice were fed with low-dosage Y7 probiotics (probiotic counts of 1.0×10^8 CFU/ml dissolved in 0.2 ml DDW per day) and exposed to blue light; • (4) High-dosage Y7 probiotics group […]): The mice were fed with high-dosage Y7 probiotics (probiotic counts of 1.0×10^9 CFU/ml dissolved in 0.2 ml DDW per day) and exposed to blue light; • (5) Positive control group (lutein (LU)): The mice were fed with lutein and exposed to blue light. The recommended human dosage of lutein is 30 mg. The mouse cage (48×25×20 cm) placed inside a stainless ventilated box was equipped with blue light boards as blue light sources around and above. In the experiment of animals exposed to blue light, six-week-old mice staying in the mouse cage were fed with drinking water as well as fodders and exposed to 400 Lux blue light illumination under the light-dark cycle of 12-hour light and 12-hour dark. The experiment was aimed at causing mice' late dry macular disease induced by chronic light injuries for simulating a human being's macular disease after long-term exposure to short-wavelength blue light from 3C products in daily life. All data written as the form of mean±standard error of the mean (S.E.M.) were used in the statistical analysis through the one-way ANOVA and the Newman-Keuls test; p<0.05 denoted statistical difference. In the experiment, the software for the statistical analysis was Graph pad Prism (v9.2.0). The data such as food intake, water intake, body weight, organ weight and other clinical examination data were analyzed with the one-way ANOVA.

[2] = test system: blue light-induced retinal atrophy; test: SD-OCT quantitative analysis of retina layers, blue light-induced macular disease model; format: in vivo, C57BL/6 mice; conditions: for ONL (outer nuclear layer) thickness compared with the BL group / RPE layer thickness compared with the BL group: Day 35, p<0.05
Experimental: The C57BL/6 mice, which weighed between 23 and 25 g, were divided into seven groups randomly. In each group, the six mice induced by blue light successfully were incorporated in experiments. The samples dissolved in deuterium-depleted water (DDW) were fed to mice through oral tubes once a day. The groups were named and introduced as follows: • (1) Solvent not classified group (NC): The mice were fed with 0.2 ml deuterium-depleted water (DDW) through tubes; • (2) Negative control group (Blue light (BL)): The mice were fed with 0.2 ml deuterium-depleted water (DDW) through tubes and exposed to blue light; • (3) Low-dosage Y7 probiotics group […]): The mice were fed with low-dosage Y7 probiotics (probiotic counts of 1.0×10^8 CFU/ml dissolved in 0.2 ml DDW per day) and exposed to blue light; • (4) High-dosage Y7 probiotics group […]): The mice were fed with high-dosage Y7 probiotics (probiotic counts of 1.0×10^9 CFU/ml dissolved in 0.2 ml DDW per day) and exposed to blue light; • (5) Positive control group (lutein (LU)): The mice were fed with lutein and exposed to blue light. The recommended human dosage of lutein is 30 mg. The mouse cage (48×25×20 cm) placed inside a stainless ventilated box was equipped with blue light boards as blue light sources around and above. In the experiment of animals exposed to blue light, six-week-old mice staying in the mouse cage were fed with drinking water as well as fodders and exposed to 400 Lux blue light illumination under the light-dark cycle of 12-hour light and 12-hour dark. The experiment was aimed at causing mice' late dry macular disease induced by chronic light injuries for simulating a human being's macular disease after long-term exposure to short-wavelength blue light from 3C products in daily life. The OCT image system (Phoenix Research Laboratories, San Ramon, CA) used in the experiment is constructed based on the principle of spectral-domain optical coherence tomography. In the system, the computed tomography is divided into five layers, that is, Layer 1: the distance from the Ganglion cell layer (GY7L) to the outer plexiform layer (OPL); Layer 2: outer nuclear layer (ONL); Layer 3: the distance between the inner segment (IS) and the outer segment (OS); Layer 4: the distance from IS/OS to RPE; Layer 5: the total retinal thickness from the nerve fiber layer (NFL) to the lower edge of the RPE layer. The five layers were taken for the quantitative analysis by InSight XL (Phoenix Research Laboratories, San Ramon, CA). SD-OCT was used in checking lesions after exposure to blue light such as retinal atrophy and edema on a retina structure. According to the quantitative SD-OCT analysis, changes in all layers of a retina during the experiment were clearly inspected and no lesion like atrophy and edema was detected in any group before the experiment, as show in FIG. 5. Atrophy at the outer nuclear layer (ONL) of mice in the BL group was observed on Day 35, as shown by the arrow in FIG. 3a.

food intakes compared with the BL group ([1]; mouse, in vivo)	food intakes of mice ([1]; Day7)	food intakes of mice ([1]; Day14)	food intakes of mice ([1]; Day21)	food intakes of mice ([1]; Day28)	food intakes of mice ([1]; Day35)	Compound	ONL (outer nuclear layer) thickness compared with the BL group ([2]; Y7H high-dosage group)	RPE layer thickness compared with the BL group ([2]; Y7H high-dosage group)	ONL (outer nuclear layer) thickness compared with the BL group ([2]; Y7L low-dosage group)	RPE layer thickness compared with the BL group ([2]; Y7L low-dosage group)	thickness of a retina after long-term exposure to blue light ([2]; high-dosage Y7 probiotics)	thickness of a retina after long-term exposure to blue light ([2]; low-dosage Y7 probiotics)	RPE layer thickness compared with the BL group ([2]; LU lutein group)	thickness of a retina after long-term exposure to blue light ([2]; lutein)
significantly higher	–	–	–	–	–	Lactobacillus reuteri Y7 [Y7 probiotics]	significant difference	significantly thicker	significant difference	significantly thicker	effectively maintained	effectively maintained	–	–
–	5.71 ± 1.17	4.17 ± 1.15	5.04 ± 1.82	5.33 ± 2.17	4.43 ± 2.12	CC1=C[C@H](O)CC(C)(C)[C@H]1/C=C/C(C)=C/C=C/C(C)=C/C=C/C=C(C)/C=C/C=C(C)/C=C/C1=C(C)C[C@@H](O)CC1(C)C [lutein, reference compound]	–	–	–	–	–	–	significantly thicker	effectively maintained
